For 26 compounds, IC50 results are on record in patent US20240109917A1 (ACTELION PHARMACEUTICALS LTD, priority 2020, published 2024).

Sequence of PDGFRβ (Q05030 32-1097): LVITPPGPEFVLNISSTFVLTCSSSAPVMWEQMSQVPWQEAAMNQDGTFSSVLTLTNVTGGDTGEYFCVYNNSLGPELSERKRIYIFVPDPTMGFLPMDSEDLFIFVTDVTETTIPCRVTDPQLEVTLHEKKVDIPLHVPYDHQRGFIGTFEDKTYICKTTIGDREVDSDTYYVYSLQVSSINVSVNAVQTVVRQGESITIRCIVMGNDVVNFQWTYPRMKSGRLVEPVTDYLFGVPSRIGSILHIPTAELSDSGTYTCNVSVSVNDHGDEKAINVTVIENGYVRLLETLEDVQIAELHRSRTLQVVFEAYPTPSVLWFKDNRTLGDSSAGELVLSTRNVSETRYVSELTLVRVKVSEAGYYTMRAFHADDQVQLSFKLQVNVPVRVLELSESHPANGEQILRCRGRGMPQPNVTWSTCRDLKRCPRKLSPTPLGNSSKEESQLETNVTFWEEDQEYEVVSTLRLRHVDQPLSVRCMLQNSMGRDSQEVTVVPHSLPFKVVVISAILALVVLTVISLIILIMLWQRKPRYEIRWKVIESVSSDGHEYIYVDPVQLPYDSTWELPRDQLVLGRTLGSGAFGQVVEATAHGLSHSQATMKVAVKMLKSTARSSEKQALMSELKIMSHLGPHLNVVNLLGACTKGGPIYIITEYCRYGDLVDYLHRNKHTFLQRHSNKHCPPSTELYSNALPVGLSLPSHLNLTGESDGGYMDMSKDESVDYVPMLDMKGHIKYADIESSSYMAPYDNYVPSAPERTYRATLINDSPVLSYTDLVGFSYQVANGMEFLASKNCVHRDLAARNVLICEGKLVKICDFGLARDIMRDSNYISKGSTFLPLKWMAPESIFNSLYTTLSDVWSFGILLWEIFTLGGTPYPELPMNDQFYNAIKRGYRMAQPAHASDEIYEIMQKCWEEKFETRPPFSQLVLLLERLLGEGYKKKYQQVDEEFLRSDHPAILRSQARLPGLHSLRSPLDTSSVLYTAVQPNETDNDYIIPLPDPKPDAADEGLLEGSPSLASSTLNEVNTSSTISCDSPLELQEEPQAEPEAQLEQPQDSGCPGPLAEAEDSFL

The target in the first experiment is PDGFRβ (Rattus norvegicus (Rat), UniProt Q05030). Briefly: PDGFRβ Cellular Assay (PDGFRb P-Y751 HTRF in A10 cells stimulated with PDGF-BB). The note with it: PDGFR Cellular IC50. In kind it is cell-based. In a few lines:
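Rat A10 cells, plated overnight, were treated with compound for 3 hours, then stimulated with PDGF-BB (working stock 100 ng/mL in 10% FBS medium). After lysis, PDGFRβ P-Y751 was detected by HTRF.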
A word on the IC50: it is the concentration that inhibits the measured activity by half. Consider `Cc1ncc(NC(=O)C[C@H]2CCCN2C(C)C)cc1NC(=O)c1cnn2cc(-c3cnn4c3OCCC4)sc12` [Example 351, (R)-2-(6,7-dihydro-5H-pyrazolo[5,1-b][1,3]oxazin-3-yl)-N-(5-(2-(1-isopropylpyrrolidin-2-yl)acetamido)-2-methylpyridin-3-yl)pyrazolo[5,1-b]thiazole-7-carboxamide], for which the IC50 worked out at 17.7 nM. In the case of `Cc1ncc(NC(=O)C2CCN(C(C)C)C2)cc1NC(=O)c1cnn2cc(-c3cnn(C)c3C)sc12` (centres unmarked) [Example 356, 2-(1,5-dimethyl-1H-pyrazol-4-yl)-N-(5-(1-isopropylpyrrolidine-3-carboxamido)-2-methylpyridin-3-yl)pyrazolo[5,1-b]thiazole-7-carboxamide], 74.6 nM corresponded to half-maximal inhibition (IC50). `COCCCc1cn2ncc(C(=O)Nc3cc(C(=O)NCCN4CCCC4(C)C)cnc3C)c2s1` [Example 360, N-(5-((2-(2,2-dimethylpyrrolidin-1-yl)ethyl)carbamoyl)-2-methylpyridin-3-yl)-2-(3-methoxypropyl)pyrazolo[5,1-b]thiazole-7-carboxamide]: the concentration for half-maximal inhibition (IC50) worked out at 59.2 nM. Same read-out and setting: as for `COC/C=C/c1cn2ncc(C(=O)Nc3cc(C(=O)NCCN4CCCC4(C)C)cnc3C)c2s1` [Example 361, (E)-N-(5-((2-(2,2-dimethylpyrrolidin-1-yl)ethyl)carbamoyl)-2-methylpyridin-3-yl)-2-(3-methoxyprop-1-en-1-yl)pyrazolo[5,1-b]thiazole-7-carboxamide], the figure is 14.9 nM.

Still in this experiment, the particulars now being: read-out: PDGFR Cellular IC50.
With `COCCn1cc(-c2cn3ncc(C(=O)Nc4cc(NC(=O)CN5CCC(C)(C)C5)cnc4C)c3s2)cn1` [Example 336, N-(5-(2-(3,3-dimethylpyrrolidin-1-yl)acetamido)-2-methylpyridin-3-yl)-2-(1-(2-methoxyethyl)-1H-pyrazol-4-yl)pyrazolo[5,1-b]thiazole-7-carboxamide], the IC50 turned out to be 3.1 nM. As for `COCCn1cc(-c2cn3ncc(C(=O)Nc4cc(NC(=O)CN5CCCC5)cnc4C)c3s2)cn1` [Example 337, 2-(1-(2-methoxyethyl)-1H-pyrazol-4-yl)-N-(2-methyl-5-(2-(pyrrolidin-1-yl)acetamido)pyridin-3-yl)pyrazolo[5,1-b]thiazole-7-carboxamide], the IC50 was determined as 24.9 nM.

Turning to `COCCn1cc(-c2cn3ncc(C(=O)Nc4cc(NC(=O)CN5CCCCC5)cnc4C)c3s2)cn1` [Example 338, 2-(1-(2-methoxyethyl)-1H-pyrazol-4-yl)-N-(2-methyl-5-(2-(piperidin-1-yl)acetamido)pyridin-3-yl)pyrazolo[5,1-b]thiazole-7-carboxamide], the IC50 amounted to 4.6 nM. On the same count and under the same terms, as for `COCCn1cc(-c2cn3ncc(C(=O)Nc4cc(NC(=O)CN5CCCCCC5)cnc4C)c3s2)cn1` [Example 339, N-(5-(2-(azepan-1-yl)acetamido)-2-methylpyridin-3-yl)-2-(1-(2-methoxyethyl)-1H-pyrazol-4-yl)pyrazolo[5,1-b]thiazole-7-carboxamide], the figure is 2.6 nM; as for `COCCn1cc(-c2cn3ncc(C(=O)Nc4cc(NC(=O)CN5C6CCC5CC6)cnc4C)c3s2)cn1` [Example 340, N-(5-(2-(7-azabicyclo[2.2.1]heptan-7-yl)acetamido)-2-methylpyridin-3-yl)-2-(1-(2-methoxyethyl)-1H-pyrazol-4-yl)pyrazolo[5,1-b]thiazole-7-carboxamide], 6.5 nM; as for `COCCn1cc(-c2cn3ncc(C(=O)Nc4cc(NC(=O)CN5CCC(C6CC6)C5)cnc4C)c3s2)cn1` (centres unmarked) [Example 341, N-(5-(2-(3-cyclopropylpyrrolidin-1-yl)acetamido)-2-methylpyridin-3-yl)-2-(1-(2-methoxyethyl)-1H-pyrazol-4-yl)pyrazolo[5,1-b]thiazole-7-carboxamide], 5.1 nM. `COCCn1cc(-c2cn3ncc(C(=O)Nc4cc(NC(=O)C5CN(C(C)C)C5)cnc4C)c3s2)cn1` [Example 342, N-(5-(1-isopropylazetidine-3-carboxamido)-2-methylpyridin-3-yl)-2-(1-(2-methoxyethyl)-1H-pyrazol-4-yl)pyrazolo[5,1-b]thiazole-7-carboxamide]: the IC50 came to 339 nM.

Consider `COCCn1cc(-c2cn3ncc(C(=O)Nc4cc(NC(=O)[C@@H]5CCCN5C(C)C)cnc4C)c3s2)cn1` [Example 343, (S)—N-(5-(1-isopropylpyrrolidine-2-carboxamido)-2-methylpyridin-3-yl)-2-(1-(2-methoxyethyl)-1H-pyrazol-4-yl)pyrazolo[5,1-b]thiazole-7-carboxamide], for which the IC50 is 47.9 nM. As to `COCCn1cc(-c2cn3ncc(C(=O)Nc4cc(NC(=O)[C@H]5CCCN5C(C)C)cnc4C)c3s2)cn1` [Example 344, (R)—N-(5-(1-isopropylpyrrolidine-2-carboxamido)-2-methylpyridin-3-yl)-2-(1-(2-methoxyethyl)-1H-pyrazol-4-yl)pyrazolo[5,1-b]thiazole-7-carboxamide], the IC50 is 59.2 nM. For the compound `COCCn1cc(-c2cn3ncc(C(=O)Nc4cc(NC(=O)C5CCN(C(C)C)C5)cnc4C)c3s2)cn1` (centres unmarked) [Example 345, N-(5-(1-isopropylpyrrolidine-3-carboxamido)-2-methylpyridin-3-yl)-2-(1-(2-methoxyethyl)-1H-pyrazol-4-yl)pyrazolo[5,1-b]thiazole-7-carboxamide], the IC50 is 222 nM. As to `Cc1ncc(NC(=O)[C@@H]2CCCN2C(C)C)cc1NC(=O)c1cnn2cc(-c3cnn4c3OCCC4)sc12` [Example 346, (S)-2-(6,7-dihydro-5H-pyrazolo[5,1-b][1,3]oxazin-3-yl)-N-(5-(1-isopropylpyrrolidine-2-carboxamido)-2-methylpyridin-3-yl)pyrazolo[5,1-b]thiazole-7-carboxamide], the IC50 came to 6.8 nM. Regarding `Cc1ncc(NC(=O)[C@H]2CCCN2C(C)C)cc1NC(=O)c1cnn2cc(-c3cnn4c3OCCC4)sc12` [Example 347, (R)-2-(6,7-dihydro-5H-pyrazolo[5,1-b][1,3]oxazin-3-yl)-N-(5-(1-isopropylpyrrolidine-2-carboxamido)-2-methylpyridin-3-yl)pyrazolo[5,1-b]thiazole-7-carboxamide], the IC50 was determined as 6 nM. As for `Cc1ncc(NC(=O)C2CN(C(C)C)C2)cc1NC(=O)c1cnn2cc(-c3cnn4c3OCCC4)sc12` [Example 348, 2-(6,7-dihydro-5H-pyrazolo[5,1-b][1,3]oxazin-3-yl)-N-(5-(1-isopropylazetidine-3-carboxamido)-2-methylpyridin-3-yl)pyrazolo[5,1-b]thiazole-7-carboxamide], the IC50 came out at 195 nM.

For the compound `Cc1ncc(NC(=O)[C@@H]2CCCN2C)cc1NC(=O)c1cnn2cc(-c3cnn4c3OCCC4)sc12` [Example 349, (S)-2-(6,7-dihydro-5H-pyrazolo[5,1-b][1,3]oxazin-3-yl)-N-(2-methyl-5-(1-methylpyrrolidine-2-carboxamido)pyridin-3-yl)pyrazolo[5,1-b]thiazole-7-carboxamide], the IC50 was determined as 9.1 nM. On the same count and under the same terms, as for `Cc1ncc(NC(=O)C2CCN(C(C)C)C2)cc1NC(=O)c1cnn2cc(-c3cnn4c3OCCC4)sc12` (centres unmarked) [Example 350, 2-(6,7-dihydro-5H-pyrazolo[5,1-b][1,3]oxazin-3-yl)-N-(5-(1-isopropylpyrrolidine-3-carboxamido)-2-methylpyridin-3-yl)pyrazolo[5,1-b]thiazole-7-carboxamide], the figure is 73.3 nM.

For the compound `Cc1ncc(NC(=O)CN2CCC[C@@H]2C)cc1NC(=O)c1cnn2cc(-c3ccnc(N4CCOCC4)c3)sc12` [Example 352, (S)—N-(2-methyl-5-(2-(2-methylpyrrolidin-1-yl)acetamido)pyridin-3-yl)-2-(2-morpholinopyridin-4-yl)pyrazolo[5,1-b]thiazole-7-carboxamide], the IC50 turned out to be 2.8 nM. Take `Cc1ncc(NC(=O)CN2CCC23CCC3)cc1NC(=O)c1cnn2cc(-c3ccnc(N4CCOCC4)c3)sc12` [Example 353, N-(5-(2-(1-azaspiro[3.3]heptan-1-yl)acetamido)-2-methylpyridin-3-yl)-2-(2-morpholinopyridin-4-yl)pyrazolo[5,1-b]thiazole-7-carboxamide]: the IC50 worked out at 1.6 nM. As for `Cc1ncc(NC(=O)C2CN(C(C)C)C2)cc1NC(=O)c1cnn2cc(-c3cn(C)nc3C)sc12` [Example 354, 2-(1,3-dimethyl-1H-pyrazol-4-yl)-N-(5-(1-isopropylazetidine-3-carboxamido)-2-methylpyridin-3-yl)pyrazolo[5,1-b]thiazole-7-carboxamide], the IC50 turned out to be 78.8 nM. Still for that read-out and setting: under `Cc1ncc(NC(=O)C2CCN(C(C)C)C2)cc1NC(=O)c1cnn2cc(-c3cn(C)nc3C)sc12` (centres unmarked) [Example 355, 2-(1,3-dimethyl-1H-pyrazol-4-yl)-N-(5-(1-isopropylpyrrolidine-3-carboxamido)-2-methylpyridin-3-yl)pyrazolo[5,1-b]thiazole-7-carboxamide] stands 50.3 nM; under `Cc1ncc(NC(=O)C2CN(C(C)C)C2)cc1NC(=O)c1cnn2cc(-c3cnn(C)c3C)sc12` [Example 357, 2-(1,5-dimethyl-1H-pyrazol-4-yl)-N-(5-(1-isopropylazetidine-3-carboxamido)-2-methylpyridin-3-yl)pyrazolo[5,1-b]thiazole-7-carboxamide], 56.9 nM. Turning to `Cc1ncc(NS(=O)(=O)CCN2CC3CCC2CC3)cc1NC(=O)c1cnn2cc(-c3cnn(C)c3)sc12` [Example 358, N-(5-((2-(2-azabicyclo[2.2.2]octan-2-yl)ethyl)sulfonamido)-2-methylpyridin-3-yl)-2-(1-methyl-1H-pyrazol-4-yl)pyrazolo[5,1-b]thiazole-7-carboxamide], the IC50 was 941 nM. For `Cc1ncc(S(=O)(=O)NCCN2CCCC2(C)C)cc1NC(=O)c1cnn2cc(-c3cnn(C)c3)sc12` [Example 359, N-(5-(N-(2-(2,2-dimethylpyrrolidin-1-yl)ethyl)sulfamoyl)-2-methylpyridin-3-yl)-2-(1-methyl-1H-pyrazol-4-yl)pyrazolo[5,1-b]thiazole-7-carboxamide], the IC50 came to 365 nM.
